Source: ChEMBL document CHEMBL5543147, “Discovery and Characterization of a Novel Cereblon-Recruiting PRC1 Bridged PROTAC Degrader” (J Med Chem, 2024)
Calls of active or inactive are those of the source. The rule behind the calls is not given here.

How the values were obtained:
[1] = target: T1, Protein cereblon/Polycomb protein EED (Homo sapiens, UniProt O75530+Q96SW2); test: PROTAC activity at CRBN/EED in human K562 cells assessed as degradation of EED protein expression incubated for 24 hrs by Western blotting analysis; type: cell-based
[2] = target: T2, Protein cereblon/E3 ubiquitin-protein ligase RING2 (Homo sapiens, UniProt Q96SW2+Q99496); test: PROTAC activity at CRBN/RING1B in human K562 cells assessed as degradation of RING1B protein expression at 10 uM measured after 4 hrs by Western blotting analysis; type: cell-based
[3] = target: Protein cereblon/RING1 and YY1-binding protein (Homo sapiens) (UniProt Q96SW2+Q8N488); test: PROTAC activity at CRBN/RYBP in human K562 cells assessed as degradation of RYBP protein expression at 1 to 10 uM incubated for 24 hrs by Western blotting analysis; type: cell-based; conditions: dose 1-10 µM
[4] = target: Protein cereblon/E3 ubiquitin-protein ligase RING1 (Homo sapiens) (UniProt Q96SW2+Q06587); test: PROTAC activity at CRBN/RING1A in human K562 cells assessed as degradation of RING1A protein expression at 1 to 10 uM incubated for 24 hrs by Western blotting analysis; type: cell-based; conditions: dose 1-10 µM
[5] = target: T3, Protein cereblon/Polycomb complex protein BMI-1 (Homo sapiens, UniProt Q96SW2+P35226); test: PROTAC activity at […] in human K562 cells assessed as degradation of BMI1 protein expression at 10 uM incubated for 20 hrs in presence of EED226 by Western blotting analysis; type: cell-based
[6] = target: T3, Protein cereblon/Polycomb complex protein BMI-1; test: PROTAC activity at […] in human K562 cells assessed as degradation of BMI1 protein expression at 10 uM incubated for 20 hrs in presence of MLN4924 by Western blotting analysis; type: cell-based
[7] = target: T2, Protein cereblon/E3 ubiquitin-protein ligase RING2; test: PROTAC activity at CRBN/RING1B in human K562 cells assessed as degradation of RING1B protein expression at 10 uM incubated for 20 hrs in presence of pomalidomide by Western blotting analysis; type: cell-based
[8] = target: T2, Protein cereblon/E3 ubiquitin-protein ligase RING2; test: PROTAC activity at CRBN/RING1B in human K562 cells assessed as degradation of RING1B protein expression at 10 uM incubated for 20 hrs in presence of MG132 by Western blotting analysis; type: cell-based
[9] = target: Protein cereblon/Zinc finger protein Aiolos (Homo sapiens) (UniProt Q96SW2+Q9UKT9); test: PROTAC activity at CRBN/IKZF3 in human K562 cells assessed as degradation of IKZF3 protein at 0.1 to 10 uM incubated for 4 hrs by Western blotting analysis; type: cell-based; conditions: dose 0.1-10 µM
[10] = target: T3, Protein cereblon/Polycomb complex protein BMI-1; test: PROTAC activity at […] in human K562 cells assessed as degradation of BMI1 mRNA expression at 10 uM incubated for 20 hrs by RT-qPCR analysis; type: cell-based
[11] = target: T2, Protein cereblon/E3 ubiquitin-protein ligase RING2; test: PROTAC activity at CRBN/RING1B in human K562 cells assessed as degradation of RING1B mRNA expression at 10 uM incubated for 20 hrs by RT-qPCR analysis; type: cell-based
[12] = target: T1, Protein cereblon/Polycomb protein EED; test: PROTAC activity at CRBN/EED in human K562 cells assessed as degradation of EED mRNA expression at 10 uM incubated for 20 hrs by RT-qPCR analysis; type: cell-based
K562 = test: Antiproliferative activity against human K562 cells assessed as fold increase in HoxD mRNA expression at 10 uM incubated for 24 hrs by RT-qPCR analysis; type: functional
[13] = target: von Hippel-Lindau disease tumor suppressor/Polycomb complex protein BMI-1 (Homo sapiens) (UniProt P40337+P35226); test: PROTAC activity at […] in human 786-0 cells with defective VHL assessed as degradation of BMI1 protein expression at 10 uM incubated for 24 hrs by Western blotting analysis; type: cell-based
786-0 [14] = test: Induction of PRC2 degradation in human 786-0 cells with defective VHL assessed as reduction of H3K27me3 chromatin mark at 10 uM incubated for 24 hrs by Western blotting analysis; type: cell-based
786-0 [15] = test: Antiproliferative activity against human 786-0 cells assessed as inhibition of cell growth at 30 uM incubated for 7 days by WST-8 assay; type: functional, cell-based; conditions: time 7.0 day
[16] = target: Protein cereblon/Polycomb protein SUZ12 (Homo sapiens) (UniProt Q15022+Q96SW2); test: PROTAC activity at CRBN/SUZ12 in human PC-3M cells assessed as degradation of SUZ12 protein expression at 0.2 to 5 uM incubated for 24 hrs by Western blotting analysis; type: cell-based; conditions: dose 0.2-5 µM
[17] = target: T2, Protein cereblon/E3 ubiquitin-protein ligase RING2; test: PROTAC activity at CRBN/RING1B in human PC-3M cells assessed as degradation of RING1B protein expression at 1 uM incubated for 24 hrs by Western blotting analysis; type: cell-based
PC-3M [18] = test: Induction of PRC2 degradation in human PC-3M cells assessed as reduction of H3K27me3 chromatin mark at 1 uM incubated for 24 hrs by Western blotting analysis; type: cell-based
PC-3M [19] = test: Induction of PRC2 degradation in human PC-3M cells assessed as reduction of H3K27me3 chromatin mark at 5 uM incubated for 24 hrs by Western blotting analysis; type: cell-based
PC-3M [20] = test: Induction of PRC1 degradation in human PC-3M cells assessed as reduction of H2AK119ub chromatin mark at 1 uM incubated for 24 hrs by Western blotting analysis; type: cell-based
PC-3M [21] = test: Antiproliferative activity against human PC-3M cells assessed as inhibition of cell growth at 1 to 10 uM incubated for 5 days by WST-8 assay; type: functional, cell-based; conditions: dose 1-10 µM, time 5.0 day
[22] = target: T3, Protein cereblon/Polycomb complex protein BMI-1; test: PROTAC activity at CRBN/BIM1 in human MDA-MB-468 cells assessed as degradation of BMI1 protein expression at 5 uM incubated for 24 hrs by Western blotting analysis; type: cell-based
[23] = target: T2, Protein cereblon/E3 ubiquitin-protein ligase RING2; test: PROTAC activity at CRBN/RING1B in human MDA-MB-468 cells assessed as degradation of RING1B protein expression at 5 uM incubated for 24 hrs by Western blotting analysis; type: cell-based
MDA-MB-468 [24] = test: Induction of PRC1 degradation in human MDA-MB-468 cells assessed as reduction of H2AK119ub chromatin mark at 5 uM incubated for 24 hrs by Western blotting analysis; type: cell-based
MDA-MB-468 [25] = test: Antiproliferative activity against human MDA-MB-468 cells assessed as inhibition of cell growth at 1 to 10 uM incubated for 5 days by WST-8 assay; type: functional, cell-based; conditions: dose 1-10 µM, time 5.0 day
MDA-MB-468 [26] = test: Inhibition of colony formation in human MDA-MB-468 cells at 1 to 10 uM incubated for 14 days by crystal violet staining based assay; type: functional, cell-based; conditions: dose 1-10 µM, time 14.0 day
PNT2 = test: Cytotoxicity against human PNT2 cells assessed as inhibition of cell growth measured upto 15 uM incubated for 5 days by WST-8 assay; type: toxicity, cell-based; conditions: pnt2, 120 h, time 5 day
[27] = Drug concentration in Swiss albino mouse plasma at 50 mg/kg,ip administration measured after 2 hrs by LC-MS/MS analysis; type: ADME, organism-based
[28] = Drug concentration in Swiss albino mouse plasma at 50 mg/kg,ip administration measured after 8 hrs by LC-MS/MS analysis; type: ADME, organism-based

T2 sequence (Q96SW2 whole entry): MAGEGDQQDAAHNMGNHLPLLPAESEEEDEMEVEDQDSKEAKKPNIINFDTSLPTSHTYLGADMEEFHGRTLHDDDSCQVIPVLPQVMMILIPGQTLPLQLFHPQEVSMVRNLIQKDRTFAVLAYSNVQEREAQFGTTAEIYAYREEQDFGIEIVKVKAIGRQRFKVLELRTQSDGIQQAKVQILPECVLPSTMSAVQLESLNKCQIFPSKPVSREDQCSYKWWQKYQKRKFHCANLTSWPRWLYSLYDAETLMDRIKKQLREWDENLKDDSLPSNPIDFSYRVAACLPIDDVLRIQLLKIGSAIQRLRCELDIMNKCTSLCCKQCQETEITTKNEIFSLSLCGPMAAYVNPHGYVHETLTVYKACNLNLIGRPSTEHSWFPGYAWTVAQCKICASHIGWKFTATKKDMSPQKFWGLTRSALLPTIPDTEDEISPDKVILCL
T2 sequence (Q99496 2-336 partner limits assumed): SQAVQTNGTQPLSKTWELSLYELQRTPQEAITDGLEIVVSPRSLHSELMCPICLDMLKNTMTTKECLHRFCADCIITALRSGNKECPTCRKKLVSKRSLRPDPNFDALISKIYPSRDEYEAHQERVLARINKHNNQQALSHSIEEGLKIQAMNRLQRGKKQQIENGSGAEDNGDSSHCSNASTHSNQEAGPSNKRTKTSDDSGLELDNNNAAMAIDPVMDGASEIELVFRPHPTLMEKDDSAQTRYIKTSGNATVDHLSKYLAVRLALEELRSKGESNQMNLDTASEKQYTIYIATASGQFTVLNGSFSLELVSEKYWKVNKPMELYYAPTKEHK
T3 sequence (P35226 whole entry, looked up): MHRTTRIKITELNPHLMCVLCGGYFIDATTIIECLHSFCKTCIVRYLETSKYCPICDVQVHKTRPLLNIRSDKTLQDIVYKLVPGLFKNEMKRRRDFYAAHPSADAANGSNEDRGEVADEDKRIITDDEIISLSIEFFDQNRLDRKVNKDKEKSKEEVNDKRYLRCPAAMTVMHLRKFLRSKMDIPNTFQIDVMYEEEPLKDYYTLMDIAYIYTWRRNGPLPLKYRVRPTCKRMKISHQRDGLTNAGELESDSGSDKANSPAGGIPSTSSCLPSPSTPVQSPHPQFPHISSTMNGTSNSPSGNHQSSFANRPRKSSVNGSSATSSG
T3 sequence (Q96SW2 whole entry, looked up): as the sequence (Q96SW2 whole entry) above
Sequence of Protein cereblon/Polycomb protein SUZ12 (Homo sapiens) (Q15022 whole entry, looked up): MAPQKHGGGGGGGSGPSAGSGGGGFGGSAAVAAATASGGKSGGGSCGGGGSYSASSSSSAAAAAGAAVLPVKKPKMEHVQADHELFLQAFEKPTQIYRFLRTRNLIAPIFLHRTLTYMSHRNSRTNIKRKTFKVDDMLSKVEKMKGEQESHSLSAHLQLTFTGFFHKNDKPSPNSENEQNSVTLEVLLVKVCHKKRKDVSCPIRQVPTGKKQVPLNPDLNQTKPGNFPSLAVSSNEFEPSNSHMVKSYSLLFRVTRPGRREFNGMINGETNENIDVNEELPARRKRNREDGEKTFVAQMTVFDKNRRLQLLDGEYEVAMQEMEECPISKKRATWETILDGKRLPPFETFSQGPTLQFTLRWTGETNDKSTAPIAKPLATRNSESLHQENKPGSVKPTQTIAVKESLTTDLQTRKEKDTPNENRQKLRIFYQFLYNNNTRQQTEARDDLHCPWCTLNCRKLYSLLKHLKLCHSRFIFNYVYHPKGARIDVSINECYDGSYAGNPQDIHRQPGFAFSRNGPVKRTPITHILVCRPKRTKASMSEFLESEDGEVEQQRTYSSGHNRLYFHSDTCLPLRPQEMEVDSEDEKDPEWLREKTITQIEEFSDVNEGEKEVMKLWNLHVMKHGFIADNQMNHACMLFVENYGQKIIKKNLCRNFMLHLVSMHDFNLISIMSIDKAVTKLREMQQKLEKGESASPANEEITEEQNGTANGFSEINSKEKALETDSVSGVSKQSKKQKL
Sequence of Protein cereblon/Polycomb protein SUZ12 (Homo sapiens) (Q96SW2 whole entry, looked up): as the sequence (Q96SW2 whole entry) above
Sequence of Protein cereblon/RING1 and YY1-binding protein (Homo sapiens) (Q8N488 whole entry, looked up): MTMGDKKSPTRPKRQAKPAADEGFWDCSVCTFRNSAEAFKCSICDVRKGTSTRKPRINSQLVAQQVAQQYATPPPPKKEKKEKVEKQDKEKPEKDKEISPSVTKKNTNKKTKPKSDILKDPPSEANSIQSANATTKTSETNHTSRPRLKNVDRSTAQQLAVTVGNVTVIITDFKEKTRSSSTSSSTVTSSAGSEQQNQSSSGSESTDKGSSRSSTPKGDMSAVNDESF
Sequence of Protein cereblon/RING1 and YY1-binding protein (Homo sapiens) (Q96SW2 whole entry, looked up): as the sequence (Q96SW2 whole entry) above
Sequence of Protein cereblon/Zinc finger protein Aiolos (Homo sapiens) (Q96SW2 whole entry, looked up): as the sequence (Q96SW2 whole entry) above
Sequence of Protein cereblon/Zinc finger protein Aiolos (Homo sapiens) (Q9UKT9 whole entry, looked up): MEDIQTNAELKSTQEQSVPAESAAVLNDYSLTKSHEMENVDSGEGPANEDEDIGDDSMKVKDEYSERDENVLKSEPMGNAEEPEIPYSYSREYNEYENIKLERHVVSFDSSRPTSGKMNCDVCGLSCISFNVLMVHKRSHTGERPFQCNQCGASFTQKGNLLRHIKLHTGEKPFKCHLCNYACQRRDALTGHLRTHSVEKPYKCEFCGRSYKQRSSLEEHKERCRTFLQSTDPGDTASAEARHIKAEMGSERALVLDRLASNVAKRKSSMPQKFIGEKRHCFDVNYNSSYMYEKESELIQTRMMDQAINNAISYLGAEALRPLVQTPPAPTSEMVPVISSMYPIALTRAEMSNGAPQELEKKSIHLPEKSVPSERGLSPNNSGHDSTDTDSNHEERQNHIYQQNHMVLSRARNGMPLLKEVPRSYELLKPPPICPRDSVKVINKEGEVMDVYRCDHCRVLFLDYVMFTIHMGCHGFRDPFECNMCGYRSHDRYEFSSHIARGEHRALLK
Sequence of von Hippel-Lindau disease tumor suppressor/Polycomb complex protein BMI-1 (Homo sapiens) (P35226 whole entry, looked up): as the sequence (P35226 whole entry, looked up) above
Sequence of von Hippel-Lindau disease tumor suppressor/Polycomb complex protein BMI-1 (Homo sapiens) (P40337 whole entry, looked up): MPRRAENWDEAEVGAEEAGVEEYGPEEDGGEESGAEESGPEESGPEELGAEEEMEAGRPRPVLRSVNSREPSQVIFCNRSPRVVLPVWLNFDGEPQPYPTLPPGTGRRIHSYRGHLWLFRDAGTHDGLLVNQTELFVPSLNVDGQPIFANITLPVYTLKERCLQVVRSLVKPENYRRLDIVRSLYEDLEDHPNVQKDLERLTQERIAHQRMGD

DC50 [1]: 3.3 µM
Activity [2]: Active
Activity [3]: inactive
Activity [4]: Active
Activity [5]: inactive
Activity [6]: inactive
Activity [7]: inactive
Activity [8]: inactive
Activity [9]: inactive
Activity [10]: inactive
Activity [11]: inactive
Activity [12]: inactive
Activity [13]: Active
Activity [16]: inactive
Activity [17]: Active
Activity [22]: Active
Activity [23]: Active
concentration at 2 h [27]: > 1000 nM
concentration at 8 h [28]: > 500 nM
SMILES: O=C(CNc1cccc2c1C(=O)N(C1CCC(=O)NC1=O)C2=O)NCCCCN1CCN(c2ccc(-c3cnc(NCc4ccco4)n4cnnc34)cc2)CC1 (stereo not given)
fold change (FC) (K562): 2.3
Activity (786-0 [14]): inactive
Activity (786-0 [15]): Active
Activity (PC-3M [18]): inactive
Activity (PC-3M [19]): inactive
Activity (PC-3M [20]): Active
Activity (PC-3M [21]): Active
Activity (MDA-MB-468 [24]): Active
Activity (MDA-MB-468 [25]): Active
inhibition (MDA-MB-468 [26]): Active
Activity (PNT2): Non-Toxic
